Earlier results, collected in patent US11510960B2, “Biofilm disrupting composition for use on chronic wounds” (Whiteley Corporation Pty Ltd, priority 2016, dated 2022).

System: P. aeruginosa biofilm from venous leg ulcers

## gentamicin
Biofilm 24 hours post-debridement, antibiotic treatment
  reduction in concentration in relation to the control biofilm: nine-fold
Mature (pre-study) biofilm, three patients with non-healing venous leg ulcers
  average log reduction in bacteria after antibiotic treatment: 4 log
